Results from patent publication US8841302B2, “HCV inhibitor and therapeutic agent combinations” (PTC Therapeutics, Inc., priority 2009, dated 2014).

Tested on: HCV replicon RNA in replicon cells
Experiment: Replicon RNA response to antiviral agent(s), real time PCR (Taqman assay)
Assay type: cell-based
Details: replicon cells treated 3 days
Description: Replicon cells were seeded at ˜5000 cells/well in 96-well collagen I-coated Biocoat plates (Becton Dickinson). At 24 hrs post-seeding, a series of replicon cells were treated with a HCV protease inhibitor and a HCV inhibitor. The final concentration of DMSO was 0.5%, fetal bovine serum was 10%, and G418 (an aminoglycoside used as a selective agent) was 500 μg/mL.
To each concentration of Compound 10p, HCV inhibitor Compound 31 was titrated. After 3 days, the cells were washed with PBS and lysed in 1× Cell Lysis Buffer (Ambion cat #8721).
The replicon RNA level was measured using real time PCR (Taqman assay). The ampicon was located in NS5b. The PCR primers used were: 5B.2F, ATGGACAGGCGCCCTGA (SEQ ID NO: 1); 5B.2R, […] (SEQ ID NO: 2); the probe sequence was FAM-labeled CACGCCATGCGCTGCGG (SEQ ID NO: 3). GAPDH RNA was used as endogenous control and was amplified in the same reaction as NS5b (multiplex PCR) using primers and VIC-labeled probe recommended by the manufacturer (PE Applied Biosystem). The real-time RT-PCR reactions were run on ABI PRISM 7900HT Sequence Detection System using the following program: 48° C. for 30 min, 95° C. for 10 min, 40 cycles of 95° C. for 15 sec, 60° C. for 1 min. The ΔCT values (CT5B-CTGAPDH) were plotted against test compound concentration and fitted to the sigmoid dose response model using Graphpad PRISM software (Graphpad Software Inc.). The half maximal inhibitory concentration (IC50) is the concentration necessary to achieve ΔCT=1 over the projected baseline. The 90% maximal inhibitory concentration (IC90) is the concentration necessary to achieve ΔCT=3.2 over the baseline. Alternatively, to quantitate the absolute amount of replicon RNA, a standard curve was established by including serially diluted T7 transcripts of replicon RNA in the Taqman assay. All Taqman reagents were from PE Applied Biosystem.

## CC(C)(C)NC(=O)N[C@H](C(=O)N1C[C@H]2[C@@H]([C@H]1C(=O)NC(CC1CCC1)C(=O)C(N)=O)C2(C)C)C(C)(C)C (stereo partly drawn) [Cpd 10p, (1R,2S,5S)-N-(4-amino-1-cyclobutyl-3,4-dioxobutan-2-yl)-3-((S)-2-(3-tert-butylureido)-3,3-dimethylbutanoyl)-6,6-dimethyl-3-azabicyclo[3.1.0]hexane-2-carboxamide, reference compound]
Cpd 10p 0.19 μM alone (Compound 31 0 μM)
  relative inhibition (logarithmic scale) of replicon RNA level: −0.11
Cpd 10p 1.5 μM alone (Compound 31 0 μM)
  relative inhibition (logarithmic scale) of replicon RNA level: −1.52

## N#Cc1c(-c2ccc(S(=O)(=O)NC(CF)CF)cn2)n(C2CCC2)c2cc(OC(F)F)ccc12 [Compound 31, 6-[3-cyano-1-cyclobutyl-6-(difluoromethoxy)-1H-indol-2-yl]-N-(1,3-difluoropropan-2-yl)pyridine-3-sulfonamide]
Compound 31 0.045 μM in combination with Cpd 10p 0.19 μM
  relative inhibition (logarithmic scale) of replicon RNA level: −1.16
Compound 31 0.045 μM in combination with Cpd 10p 1.5 μM
  relative inhibition (logarithmic scale) of replicon RNA level: −1.72
Compound 31 0.405 μM in combination with Cpd 10p 0.19 μM
  relative inhibition (logarithmic scale) of replicon RNA level: −1.73
Compound 31 0.405 μM in combination with Cpd 10p 1.5 μM
  relative inhibition (logarithmic scale) of replicon RNA level: −2.02
